Experimental data published in ChEMBL document CHEMBL1128617, “4-Deoxy-4-aminoavermectins with potent broad spectrum antiparasitic activities” (1995).

Legend:
Type in all cases: functional
[1] = test system: Oesophagostomum columbianum; assay: Antiparasitic activity against Oesophagostomum columbianum at dose of 0.10 mg/kg in sheep anthelmintic test; conditions: dose 0.1 mg/kg
[2] = test system: Teladorsagia circumcincta; assay: Antiparasitic activity against Ostertagia circumcincta at dose of 0.10 mg/kg in sheep anthelmintic test; conditions: dose 0.1 mg/kg
Haemonchus contortus = assay: Antiparasitic activity against Haemonchus contortus at dose of 0.10 mg/kg in sheep anthelmintic test; conditions: dose 0.1 mg/kg
Cooperia = assay: Antiparasitic activity against Cooperia […] at dose of 0.10 mg/kg in sheep anthelmintic test; conditions: dose 0.1 mg/kg
Trichostrongylus axei = assay: Antiparasitic activity against Trichostrongylus axei at dose of 0.10 mg/kg in sheep anthelmintic test; conditions: dose 0.1 mg/kg
[3] = test system: Trichostrongylus colubriformis; assay: Antiparasitic activity against Trichostrongylus colubriformis at dose of 0.10 mg/kg in sheep anthelmintic test; conditions: dose 0.1 mg/kg
Artemia = assay: In vitro antiparasitic activity in brine shrimp assay

| SMILES | Reduction [1] [%] | Reduction [2] [%] | Reduction (Haemonchus contortus) [%] | Reduction (Cooperia) [%] | Reduction (Trichostrongylus axei) [%] | Reduction [3] [%] | IC100 (Artemia) [ng/mL] |
| --- | --- | --- | --- | --- | --- | --- | --- |
| CCC(C)[C@H]1O[C@]2(C=C[C@@H]1C)C[C@@H]1C[C@@H](C/C=C(\C)[C@@H](O[C@H]3C[C@H](OC)[C@@H](O[C@H]4C[C@H](OC)[C@H](N)[C@H](C)O4)[C@H](C)O3)[C@@H](C)/C=C/C=C3\CO[C@@H]4[C@H](O)C(C)=C[C@@H](C(=O)O1)[C@]34O)O2 (some centres undefined) | >95 | >95 | >95 | >95 | <50 | 51 | 1730 |
| CCC(C)[C@H]1O[C@]2(C=C[C@@H]1C)C[C@@H]1C[C@@H](C/C=C(\C)[C@@H](O[C@H]3C[C@H](OC)[C@@H](O[C@H]4C[C@H](OC)[C@@H](O)[C@H](C)O4)[C@H](C)O3)[C@@H](C)/C=C/C=C3\CO[C@@H]4[C@H](O)C(C)=C[C@@H](C(=O)O1)[C@]34O)O2 (some centres undefined) [AVERMECTIN] | >95 | >95 | >95 | >95 | >95 | >95 | 296 |
| CCC(C)[C@H]1O[C@]2(CC[C@@H]1C)C[C@@H]1C[C@@H](C/C=C(\C)[C@@H](O[C@H]3C[C@H](OC)[C@@H](O[C@H]4C[C@H](OC)[C@H](N)[C@H](C)O4)[C@H](C)O3)[C@@H](C)/C=C/C=C3\CO[C@@H]4[C@H](O)C(C)=C[C@@H](C(=O)O1)[C@]34O)O2 (some centres undefined) | >95 | >95 | >95 | >95 | <50 | <50 | 1730 |
| CCC(C)[C@H]1O[C@]2(C=C[C@@H]1C)C[C@@H]1C[C@@H](C/C=C(\C)[C@@H](O[C@H]3C[C@H](OC)[C@@H](O[C@H]4C[C@H](OC)[C@H](NCCO)[C@H](C)O4)[C@H](C)O3)[C@@H](C)/C=C/C=C3\CO[C@@H]4[C@H](O)C(C)=C[C@@H](C(=O)O1)[C@]34O)O2 (some centres undefined) | >95 | >95 | >95 | >95 | <50 | 76 | 3470 |
| CCC(C)[C@H]1O[C@]2(C=C[C@@H]1C)C[C@@H]1C[C@@H](C/C=C(\C)[C@@H](O[C@H]3C[C@H](OC)[C@@H](O[C@H]4C[C@H](OC)[C@H](NC(=O)C(C)(C)C)[C@H](C)O4)[C@H](C)O3)[C@@H](C)/C=C/C=C3\CO[C@@H]4[C@H](O)C(C)=C[C@@H](C(=O)O1)[C@]34O)O2 (some centres undefined) | >95 | 76 | >95 | >95 | 76 | 76 | 1730 |
| CCC(C)[C@H]1O[C@]2(C=C[C@@H]1C)C[C@@H]1C[C@@H](C/C=C(\C)[C@@H](O[C@H]3C[C@H](OC)[C@@H](O[C@H]4C[C@H](OC)[C@H](NC(=O)NC)[C@H](C)O4)[C@H](C)O3)[C@@H](C)/C=C/C=C3\CO[C@@H]4[C@H](O)C(C)=C[C@@H](C(=O)O1)[C@]34O)O2 (some centres undefined) | >95 | 51 | >95 | >95 | >95 | 76 | 430 |
| CCC(C)[C@H]1O[C@]2(C=C[C@@H]1C)C[C@@H]1C[C@@H](C/C=C(\C)[C@@H](O[C@H]3C[C@H](OC)[C@H](NC(C)=O)[C@H](C)O3)[C@@H](C)/C=C/C=C3\CO[C@@H]4[C@H](O)C(C)=C[C@@H](C(=O)O1)[C@]34O)O2 (some centres undefined) | 76 | >95 | <50 | <50 | >95 | >95 | 1300 |
| CCC(C)[C@H]1O[C@]2(CC[C@@H]1C)C[C@@H]1C[C@@H](C/C=C(\C)[C@@H](O[C@H]3C[C@H](OC)[C@@H](O[C@H]4C[C@H](OC)[C@H](NC(=O)COC)[C@H](C)O4)[C@H](C)O3)[C@@H](C)/C=C/C=C3\CO[C@@H]4[C@H](O)C(C)=C[C@@H](C(=O)O1)[C@]34O)O2 (some centres undefined) | >95 | >95 | >95 | >95 | >95 | 76 | 870 |
| CCC(C)[C@H]1O[C@]2(C=C[C@@H]1C)C[C@@H]1C[C@@H](C/C=C(\C)[C@@H](O[C@H]3C[C@H](OC)[C@@H](O[C@H]4C[C@H](OC)[C@H](NC(=O)C(F)(F)F)[C@H](C)O4)[C@H](C)O3)[C@@H](C)/C=C/C=C3\CO[C@@H]4[C@H](O)C(C)=C[C@@H](C(=O)O1)[C@]34O)O2 (some centres undefined) | >95 | <50 | >95 | >95 | >95 | >95 | 27800 |
| CCC(C)[C@H]1O[C@]2(C=C[C@@H]1C)C[C@@H]1C[C@@H](C/C=C(\C)[C@@H](O[C@H]3C[C@H](OC)[C@@H](O[C@H]4C[C@H](OC)[C@H](NC)[C@H](C)O4)[C@H](C)O3)[C@@H](C)/C=C/C=C3\CO[C@@H]4[C@H](O)C(C)=C[C@@H](C(=O)O1)[C@]34O)O2 (some centres undefined) | >95 | >95 | >95 | >95 | >95 | 76 | 1730 |
| CCCCCCCCN[C@@H]1[C@H](C)O[C@@H](O[C@H]2[C@H](C)O[C@@H](O[C@@H]3/C(C)=C/C[C@@H]4C[C@@H](C[C@]5(C=C[C@H](C)[C@@H](C(C)CC)O5)O4)OC(=O)[C@@H]4C=C(C)[C@@H](O)[C@H]5OC/C(=C\C=C\[C@@H]3C)[C@]54O)C[C@@H]2OC)C[C@@H]1OC (some centres undefined) | <50 | <50 | <50 | <50 | <50 | <50 | >55500 |
| CCC(C)[C@H]1O[C@]2(C=C[C@@H]1C)C[C@@H]1C[C@@H](C/C=C(\C)[C@@H](O[C@H]3C[C@H](OC)[C@@H](O[C@H]4C[C@H](OC)[C@@H](N)[C@H](C)O4)[C@H](C)O3)[C@@H](C)/C=C/C=C3\CO[C@@H]4[C@H](O)C(C)=C[C@@H](C(=O)O1)[C@]34O)O2 (some centres undefined) | >95 | >95 | >95 | >95 | <50 | <50 | 2600 |
